Key:
[1] = DRUGMATRIX: Calcium Channel Type L, Benzothiazepine radioligand binding (ligand: [3H] Diltiazem); type: cell membranes, Rattus norvegicus, Wistar, Brain, Membrane; conditions: Not Active = under 50% inhibition at 10 µM
[2] = biological target: Mitogen-activated protein kinase 3 (Homo sapiens, UniProt P27361); test: DRUGMATRIX: Protein Serine/Threonine Kinase, ERK1 enzyme inhibition (substrate: Myelin Basic Protein); parameters: species or system Escherichia coli; conditions: Not Active = under 50% inhibition at 10 µM
[3] = biological target: 5-hydroxytryptamine receptor 2B (Homo sapiens, UniProt P41595); type: cell membranes, CHO-K1, Membrane; conditions: for Ki: read-out: Ki; for all read-outs here: in other assays of this panel Not Active means under 50% inhibition at 10 µM
[4] = biological target: Vascular endothelial growth factor receptor 1 (Homo sapiens, UniProt P17948); type: cell-based; conditions: huvec; note: in other assays of this panel Not Active means under 50% inhibition at 10 µM
[5] = biological target: Sodium-dependent noradrenaline transporter (Homo sapiens, UniProt P23975); test: DRUGMATRIX: Norepinephrine Transporter radioligand binding (ligand: [125I] RTI-55); type: cell membranes, MDCK, Membrane; conditions: Not Active = under 50% inhibition at 10 µM; for Ki: read-out: Ki
Sodium-dependent noradrenaline transporter, sequence (P23975 whole entry): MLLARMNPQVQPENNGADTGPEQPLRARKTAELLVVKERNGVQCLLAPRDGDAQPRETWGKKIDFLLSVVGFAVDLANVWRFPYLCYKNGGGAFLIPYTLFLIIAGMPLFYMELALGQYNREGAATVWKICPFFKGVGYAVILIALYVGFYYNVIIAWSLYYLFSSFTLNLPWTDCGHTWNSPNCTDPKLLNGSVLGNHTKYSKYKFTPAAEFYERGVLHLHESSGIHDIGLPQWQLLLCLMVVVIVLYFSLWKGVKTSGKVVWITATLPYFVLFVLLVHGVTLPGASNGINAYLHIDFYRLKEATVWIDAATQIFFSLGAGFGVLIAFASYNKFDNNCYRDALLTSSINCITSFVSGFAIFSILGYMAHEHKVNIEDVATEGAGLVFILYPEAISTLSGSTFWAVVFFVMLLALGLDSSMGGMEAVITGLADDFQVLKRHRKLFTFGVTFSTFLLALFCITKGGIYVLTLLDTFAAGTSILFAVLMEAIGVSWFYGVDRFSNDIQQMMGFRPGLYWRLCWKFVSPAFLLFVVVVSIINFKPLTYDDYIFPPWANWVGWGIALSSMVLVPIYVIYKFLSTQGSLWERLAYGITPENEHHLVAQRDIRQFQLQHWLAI

Vascular endothelial growth factor receptor 1, sequence (P17948 whole entry): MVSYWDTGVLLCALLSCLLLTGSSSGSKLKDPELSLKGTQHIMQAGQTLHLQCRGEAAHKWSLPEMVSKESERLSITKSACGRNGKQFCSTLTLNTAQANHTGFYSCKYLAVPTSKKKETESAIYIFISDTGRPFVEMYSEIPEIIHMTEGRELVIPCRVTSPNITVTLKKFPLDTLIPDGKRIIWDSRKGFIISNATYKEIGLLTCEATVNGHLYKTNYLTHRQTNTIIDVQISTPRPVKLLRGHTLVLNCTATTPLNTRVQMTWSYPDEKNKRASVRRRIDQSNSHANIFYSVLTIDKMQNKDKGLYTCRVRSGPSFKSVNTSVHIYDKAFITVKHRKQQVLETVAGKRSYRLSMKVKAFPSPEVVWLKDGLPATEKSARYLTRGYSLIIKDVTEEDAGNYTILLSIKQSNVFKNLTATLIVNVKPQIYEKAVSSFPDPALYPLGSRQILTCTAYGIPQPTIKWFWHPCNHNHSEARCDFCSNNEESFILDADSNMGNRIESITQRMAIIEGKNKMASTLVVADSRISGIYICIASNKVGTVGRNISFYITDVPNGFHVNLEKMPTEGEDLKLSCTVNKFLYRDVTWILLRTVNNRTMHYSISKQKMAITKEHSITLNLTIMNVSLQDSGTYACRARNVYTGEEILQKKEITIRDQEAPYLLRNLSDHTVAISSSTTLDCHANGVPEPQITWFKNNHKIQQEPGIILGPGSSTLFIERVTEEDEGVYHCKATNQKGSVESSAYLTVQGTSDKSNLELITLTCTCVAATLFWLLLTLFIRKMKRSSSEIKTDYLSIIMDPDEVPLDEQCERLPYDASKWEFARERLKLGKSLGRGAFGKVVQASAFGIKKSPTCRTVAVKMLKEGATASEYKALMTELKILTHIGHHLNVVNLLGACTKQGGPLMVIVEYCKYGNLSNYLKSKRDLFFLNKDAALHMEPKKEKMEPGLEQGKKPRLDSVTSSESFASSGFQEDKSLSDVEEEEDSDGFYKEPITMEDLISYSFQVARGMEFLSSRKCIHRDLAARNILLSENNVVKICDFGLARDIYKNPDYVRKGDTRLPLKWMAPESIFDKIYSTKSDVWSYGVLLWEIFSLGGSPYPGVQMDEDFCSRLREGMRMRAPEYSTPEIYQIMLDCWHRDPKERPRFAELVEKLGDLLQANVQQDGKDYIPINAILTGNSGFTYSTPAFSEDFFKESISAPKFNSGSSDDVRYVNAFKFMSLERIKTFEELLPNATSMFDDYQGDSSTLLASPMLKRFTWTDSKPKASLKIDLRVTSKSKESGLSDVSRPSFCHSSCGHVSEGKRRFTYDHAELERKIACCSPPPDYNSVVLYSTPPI
5-hydroxytryptamine receptor 2B, sequence (P41595 whole entry): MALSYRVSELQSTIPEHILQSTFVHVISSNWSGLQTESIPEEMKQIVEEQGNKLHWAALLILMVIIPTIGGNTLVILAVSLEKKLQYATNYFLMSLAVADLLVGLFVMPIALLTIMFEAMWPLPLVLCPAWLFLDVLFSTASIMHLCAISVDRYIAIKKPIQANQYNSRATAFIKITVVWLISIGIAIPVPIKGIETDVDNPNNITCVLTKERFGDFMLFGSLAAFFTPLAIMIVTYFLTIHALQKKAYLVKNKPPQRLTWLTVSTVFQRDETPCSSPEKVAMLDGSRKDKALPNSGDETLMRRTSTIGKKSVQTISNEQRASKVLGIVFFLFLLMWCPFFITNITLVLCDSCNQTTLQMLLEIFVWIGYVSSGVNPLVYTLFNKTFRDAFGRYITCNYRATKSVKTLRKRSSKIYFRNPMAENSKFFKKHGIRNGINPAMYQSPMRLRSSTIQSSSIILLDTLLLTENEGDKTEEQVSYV
Mitogen-activated protein kinase 3, sequence (P27361 whole entry): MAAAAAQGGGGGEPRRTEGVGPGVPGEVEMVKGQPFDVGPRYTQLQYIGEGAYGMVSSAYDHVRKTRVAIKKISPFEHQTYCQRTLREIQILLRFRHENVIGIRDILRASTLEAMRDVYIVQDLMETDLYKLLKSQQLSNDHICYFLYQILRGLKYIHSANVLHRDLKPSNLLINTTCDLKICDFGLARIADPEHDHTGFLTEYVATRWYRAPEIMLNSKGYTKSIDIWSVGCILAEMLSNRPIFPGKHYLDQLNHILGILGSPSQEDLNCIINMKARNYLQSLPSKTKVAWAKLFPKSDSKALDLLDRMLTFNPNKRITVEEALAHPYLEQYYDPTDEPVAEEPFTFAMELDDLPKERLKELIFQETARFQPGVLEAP

Row | Compound | IC50 [1] | Ki [1] | IC50 [2] | IC50 ([3]; cho-k1) | IC50 [4] | IC50 ([5]; read-out: IC50) | Ki [5] | IC50 ([5]; mdck) | IC50 ([1]; read-out: IC50) | Ki ([1]; read-out: Ki) | IC50 ([2]; read-out: IC50) | IC50 ([3]; read-out: IC50) | Ki [3]
1 | CCOc1nc2cccc(C(=O)O)c2n1Cc1ccc(-c2ccccc2-c2nnn[nH]2)cc1 | Not Active | Not Active | Not Active | Not Active | Not Active | 3070 nM | 3040 nM | – | – | – | – | – | –
2 | O=C(O)CCCc1cccs1 | Not Active | Not Active | Not Active | Not Active | Not Active | – | – | Not Active | – | – | – | – | –
3 | COc1ccccc1N | Not Active | Not Active | Not Active | Not Active | Not Active | – | – | Not Active | – | – | – | – | –
4 | O=C(c1ccccc1F)N1CCC(Cc2ccccc2)CC1 | Not Active | Not Active | Not Active | Not Active | Not Active | – | – | Not Active | – | – | – | – | –
5 | Cc1c(O)cccc1C(=O)N[C@@H](CSc1ccccc1)[C@H](O)CN1C[C@H]2CCCC[C@H]2C[C@H]1C(=O)NC(C)(C)C | – | – | – | Not Active | Not Active | 8850 nM | 8780 nM | – | 14600 nM | 13000 nM | 22500 nM | – | –
6 | CC(O)COC[C@H]1O[C@@H]2O[C@H]3[C@H](O)[C@@H](O)[C@@H](O[C@H]4[C@H](O)[C@@H](O)[C@@H](O[C@H]5[C@H](O)[C@@H](O)[C@@H](O[C@H]6[C@H](O)[C@@H](O)[C@@H](O[C@H]7[C@H](O)[C@@H](O)[C@@H](O[C@H]8[C@H](O)[C@@H](O)[C@@H](O[C@H]1[C@H](O)[C@H]2O)O[C@@H]8COCC(C)O)O[C@@H]7COCC(C)O)O[C@@H]6COCC(C)O)O[C@@H]5COCC(C)O)O[C@@H]4COCC(C)O)O[C@@H]3COCC(C)O (stereo partly drawn) [2-HYDROXYPROPYL-BETA-CYCLODEXTRIN] | Not Active | Not Active | Not Active | – | Not Active | 1270 nM | 1260 nM | – | – | – | – | 63 nM | 40 nM
7 | NC(=O)c1cccc(N)c1 [3-AMINOBENZAMIDE] | Not Active | Not Active | Not Active | Not Active | Not Active | – | – | Not Active | – | – | – | – | –
8 | C[C@H]1O[C@H](O[C@H]2[C@H](O)[C@@H](O)[C@@H](O[C@H]3[C@H](O)[C@@H](O)C(O)O[C@@H]3CO)O[C@@H]2CO)[C@H](O)[C@@H](O)[C@@H]1N[C@H]1C=C(CO)[C@@H](O)[C@H](O)[C@H]1O (some centres undefined) [ACARBOSE] | Not Active | Not Active | Not Active | Not Active | Not Active | – | – | Not Active | – | – | – | – | –
9 | CC[C@H]1[C@@H]2C[C@H]3[C@@H]4N(C)c5ccccc5[C@]45C[C@@H]([C@@H]2[C@H]5O)N3[C@@H]1O [AJMALINE] | Not Active | Not Active | Not Active | Not Active | Not Active | – | – | Not Active | – | – | – | – | –
10 | NC12CC3CC(CC(C3)C1)C2 [AMANTADINE] | Not Active | Not Active | Not Active | Not Active | Not Active | – | – | Not Active | – | – | – | – | –
11 | NCCCNCCSP(=O)(O)O [AMIFOSTINE] | Not Active | Not Active | Not Active | Not Active | Not Active | – | – | Not Active | – | – | – | – | –
12 | CN(C)CCC=C1c2ccccc2CCc2ccccc21 [AMITRIPTYLINE] | – | – | Not Active | – | Not Active | – | – | – | 1990 nM | 1770 nM | – | – | –
13 | CC(=O)Oc1ccccc1C(=O)O [ASPIRIN] | Not Active | Not Active | Not Active | Not Active | Not Active | – | – | Not Active | – | – | – | – | –
14 | CC(C)c1c(C(=O)Nc2ccccc2)c(-c2ccccc2)c(-c2ccc(F)cc2)n1CC[C@@H](O)C[C@@H](O)CC(=O)O [ATORVASTATIN] | Not Active | Not Active | Not Active | Not Active | Not Active | – | – | Not Active | – | – | – | – | –
15 | CC(=O)OC[C@H]1O[C@@H](n2ncc(=O)[nH]c2=O)[C@H](OC(C)=O)[C@@H]1OC(C)=O [AZARIBINE] | Not Active | Not Active | Not Active | Not Active | Not Active | – | – | Not Active | – | – | – | – | –
16 | C[C@H]1[C@H](NC(=O)/C(=N\OC(C)(C)C(=O)O)c2csc(N)n2)C(=O)N1S(=O)(=O)O [AZTREONAM] | Not Active | Not Active | Not Active | Not Active | Not Active | – | – | Not Active | – | – | – | – | –
17 | O=C(O)CCNC(=O)c1ccc(/N=N/c2ccc(O)c(C(=O)O)c2)cc1 [BALSALAZIDE] | Not Active | Not Active | Not Active | Not Active | Not Active | – | – | Not Active | – | – | – | – | –
18 | COc1cc(OC)c(C(=O)CCCN2CCCC2)c(OC)c1 [BUFLOMEDIL] | Not Active | Not Active | Not Active | Not Active | Not Active | – | – | Not Active | – | – | – | – | –
19 | Cn1c(=O)c2c(ncn2C)n(C)c1=O [CAFFEINE] | Not Active | Not Active | Not Active | Not Active | Not Active | – | – | Not Active | – | – | – | – | –
20 | ClC(Cl)(Cl)Cl [CARBON TETRACHLORIDE] | Not Active | Not Active | Not Active | Not Active | Not Active | – | – | Not Active | – | – | – | – | –
21 | CO/N=C(\C(=O)N[C@@H]1C(=O)N2C(C(=O)O)=C(COC(C)=O)CS[C@H]12)c1csc(N)n1 [CEFOTAXIME] | Not Active | Not Active | – | Not Active | Not Active | – | – | Not Active | – | – | – | – | –
22 | CNC1=Nc2ccc(Cl)cc2C(c2ccccc2)=[N+]([O-])C1 [CHLORDIAZEPOXIDE] | Not Active | Not Active | Not Active | Not Active | Not Active | – | – | Not Active | – | – | – | – | –
23 | Cc1cc(O)cc(C)c1Cl [CHLOROXYLENOL] | Not Active | Not Active | Not Active | – | Not Active | – | – | Not Active | – | – | – | 1860 nM | 1180 nM
24 | CCCNC(=O)NS(=O)(=O)c1ccc(Cl)cc1 [CHLORPROPAMIDE] | Not Active | Not Active | Not Active | Not Active | Not Active | – | – | Not Active | – | – | – | – | –
25 | NS(=O)(=O)c1cc(C2(O)NC(=O)c3ccccc32)ccc1Cl (centres undefined) [CHLORTHALIDONE] | Not Active | Not Active | Not Active | Not Active | Not Active | – | – | Not Active | – | – | – | – | –
26 | O=C(O)CC(O)(CC(=O)O)C(=O)O [CITRIC ACID] | Not Active | Not Active | Not Active | Not Active | Not Active | – | – | Not Active | – | – | – | – | –
27 | CC(C)NCC(O)c1ccccc1Cl (centres undefined) [CLORPRENALINE] | Not Active | Not Active | Not Active | Not Active | Not Active | – | – | Not Active | – | – | – | – | –
28 | C[C@H]1COc2c(N3CCN(C)CC3)c(F)cc3c(=O)c(C(=O)O)cn1c23.C[C@H]1COc2c(N3CCN(C)CC3)c(F)cc3c(=O)c(C(=O)O)cn1c23.O [LEVOFLOXACIN] | Not Active | Not Active | Not Active | Not Active | Not Active | – | – | – | – | – | – | – | –
29 | C[C@@H]1O[C@@H](O[C@H]2C[C@@H](O)[C@]3(CO)[C@H]4[C@H](O)C[C@]5(C)[C@@H](C6=CC(=O)OC6)CC[C@]5(O)[C@@H]4CC[C@]3(O)C2)[C@H](O)[C@H](O)[C@H]1O [OUABAIN] | Not Active | Not Active | Not Active | Not Active | Not Active | – | – | – | – | – | – | – | –

— ChEMBL document CHEMBL1909046, “DrugMatrix in vitro pharmacology data”
